Test results: ChEMBL document CHEMBL2150935, “Synthesis, biological evaluation and chemometric analysis of indazole derivatives. 1,2-Disubstituted 5-nitroindazolinones, new prototypes of antichagasic drug” (Eur J Med Chem, 2012)

How the values were obtained:
Trypanosoma cruzi [1] = experiment: Growth inhibition of epimastigote form of Trypanosoma cruzi CL-B5 at 128 uM after 72 hrs by lacZ reporter gene assay; assay type: functional; details: CL-B5, 72 h, read-out: GI
Trypanosoma cruzi [2] = experiment: Growth inhibition of epimastigote form of Trypanosoma cruzi CL-B5 at 64 uM after 72 hrs by lacZ reporter gene assay; assay type: functional; details: CL-B5, 72 h, read-out: GI
Trypanosoma cruzi [3] = experiment: Growth inhibition of epimastigote form of Trypanosoma cruzi CL-B5 at 256 uM after 72 hrs by lacZ reporter gene assay; assay type: functional; details: CL-B5, 72 h, read-out: GI
[4] = Growth inhibition of mouse J774 cells at 256 uM after 24 hrs by resazurin reduction assay; assay type: cell-based; details: read-out: GI
[5] = Growth inhibition of mouse J774 cells at 128 uM after 24 hrs by resazurin reduction assay; assay type: cell-based; details: read-out: GI
[6] = Growth inhibition of mouse J774 cells at 64 uM after 24 hrs by resazurin reduction assay; assay type: cell-based; details: read-out: GI

| Structure (SMILES) | inhibition of growth at 128 µM (Trypanosoma cruzi [1]) | inhibition of growth at 64 µM (Trypanosoma cruzi [2]) | inhibition of growth at 256 µM (Trypanosoma cruzi [3]) | inhibition at 24 h, 256 µM [4] | inhibition at 24 h, 128 µM [5] | inhibition at 24 h, 64 µM [6] |
| --- | --- | --- | --- | --- | --- | --- |
| CCCOc1c2cc([N+](=O)[O-])ccc2nn1Cc1ccc2ccccc2c1 | 16.4% | 61.2% | 22.5% | 0% | 28.5% | 22.4% |
| CC(C)n1c2ccc([N+](=O)[O-])cc2c(=O)n1C | 10.5% | 7.45% | 13.2% | 0% | 0% | 0% |
| Cn1c2ccc([N+](=O)[O-])cc2c(=O)n1Cc1ccccc1 | 86% | 83.3% | 91.7% | 0% | 29% | 15.2% |
| CC(C)Oc1c2cc([N+](=O)[O-])ccc2nn1-c1ccccc1 | 11.3% | 20.7% | 6.26% | – | – | – |
| CC(C)Oc1c2cc([N+](=O)[O-])ccc2nn1C | 70.5% | 71.5% | 71.9% | 20% | 19.2% | 6.34% |
| CCCCOc1c2cc([N+](=O)[O-])ccc2nn1Cc1ccccc1 | 48.5% | 24.6% | 54.7% | 26.3% | – | – |
| Cn1c2ccc([N+](=O)[O-])cc2c(=O)n1Cc1ccc2ccccc2c1 | 40.9% | 42.5% | 37.7% | 0% | 0% | 0% |
| Cn1c2ccc([N+](=O)[O-])cc2c(=O)n1-c1ccccc1 | 84.3% | 81.8% | 89.1% | 20.7% | 9.95% | 0% |
| Cn1nc(OCCc2ccccc2)c2cc([N+](=O)[O-])ccc21 | 40.6% | 67% | 49.4% | 0% | 2.99% | 0% |
| Cn1nc(OCc2ccc3ccccc3c2)c2cc([N+](=O)[O-])ccc21 | 23.6% | 46.4% | 11.3% | – | 9% | 13.3% |
| COc1c2cc([N+](=O)[O-])ccc2nn1C | 79.2% | 67.8% | 78.7% | 21.6% | 6.57% | 0% |
| CCCn1c2ccc([N+](=O)[O-])cc2c(=O)n1C | 7.92% | 3.05% | 11.6% | 0% | 0% | 0% |
| CCCCCOc1c2cc([N+](=O)[O-])ccc2nn1Cc1ccccc1 | 78.8% | 53.4% | 79.3% | 0% | 0% | 0% |
| Cn1c2ccc([N+](=O)[O-])cc2c(=O)n1CCc1ccccc1 | 29.1% | 49.6% | 23.4% | 0% | 0% | 0% |
| Cn1nc2ccc([N+](=O)[O-])cc2c1OCc1ccccc1 | 56.1% | 36.7% | 65.5% | 0% | 1.39% | 21.5% |
| CC(C)Oc1c2cc([N+](=O)[O-])ccc2nn1Cc1ccccc1 | 67.1% | 56.2% | 70.8% | 41.4% | – | – |
| COc1c2cc([N+](=O)[O-])ccc2nn1Cc1ccc2ccccc2c1 | 35.6% | 27% | 72.5% | 9.31% | – | – |
| O=[N+]([O-])c1ccc2nn(Cc3ccccc3)c(OCc3ccccc3)c2c1 | 43.5% | 51.8% | 34.5% | 64.7% | 15.2% | – |
